{"source": "patent US9592212B2", "about": "“Use of pan-PPAR agonists for treatment of tauopathies” (Cornell University, priority 2011, dated 2017)", "key": {"N171-82Q mice": {"system": "N171-82Q mice", "details": "cited from earlier work"}, "R6/2 mice [1]": {"system": "R6/2 mice", "assay": "Behavioral tests (grip strength, open field, rotarod) in R6/2 mice", "assay_type": "in vivo", "details": "0.5% bezafibrate diet", "experimental": "(§1) All experiments were conducted within National Institutes of Health guidelines for animal research and were approved by the Weill Cornell Medical College Animal Care and Use Committee. The animals were kept on a 12-hr light/dark cycle, with food and water available ad libitum. Mice were fed standard diet containing 0.5% bezafibrate or standard diet (Purina-Mills Richmond, Ind., USA), starting right after weaning up to 3 months of age.\nExperimenters were blind to the genotype during all testing, at least until the appearance of a robust behavioral phenotype in the mutants. We utilized a behavioral testing battery consisting of: rotarod, grip strength and open field. […] The latency to fall from the rod was recorded. Exploratory behavior was recorded in the open-field (45 cm×45 cm; height: 20 cm), for 10 min per day using a video tracking system (Ethovision 3.0, Noldus Technology, Attleborough, Mass., USA) and averaged over 3 days. […]\nTo assess muscle strength we tested the R6/2 mice and their wild-type littermates on the grip strength test (FIG. 2A). […] Motor coordination was assessed by performance on an accelerated rotarod apparatus. Latency to fall was recorded for 3 trials per weekly assessment and scores were averaged (FIG. 2C)."}, "R6/2 mice [2]": {"system": "R6/2 mice", "assay": "Survival of R6/2 mice (Kaplan-Meier)", "assay_type": "in vivo", "details": "0.5% bezafibrate diet", "experimental": "as §1\nR6/2 mice normally die prematurely as compared to their wild-type littermates, between the age of 70-91 days (Mangiarini et al. 1996). Symptomatic mice approaching the disease endstage were examined twice daily (morning and late afternoon) to assess when they reached end-stage of the disease, as assessed by the righting reflex or failure to eat moistened chow placed beside mice over a 24 hour period. At this point, mice were euthanized by CO2 inhalation. This day was recorded as time of death of the mice. […] In our hands, the R6/2 mice survived to 77-88 days of age, and the longest living mouse died at 90 days of age (mean=84+1.2 days). Bezafibrate treated R6/2 mice lived 20% longer than the R6/2 mice on a standard diet (mean=102+3.2 days) (FIG. 2D)."}, "P301S mice": {"system": "P301S mice", "assay": "Mitochondria characterisation in brains of P301S and wild-type mice", "assay_type": "in vivo", "source_text": "Animals were generated by breeding P301S transgenic male mice with wild-type female mice obtained from Jackson Laboratory (Bar Harbor, Me., USA). Offspring were genotyped by PCR of tail DNA. P301S transgenic mice and their wild-type littermates were randomly assigned to receive either control diet (LabDiet 5002) or 0.5% bezafibrate diet (Sigma, St. Louis, Mo., USA) from 1 to 10 months of age ad libitum. The chow was pelleted by Purina-Mills (Richmond, Ind., USA). Behavioral analyses were performed at 5, 7, and 9 months of age. Histopathological and biochemical analyses were conducted at 10 months of age on the same animals. All experiments were approved by the Weill Cornell Medical College Institutional Animal Care and Use Committee.\nDissected, non-perfused frontal lobe samples (˜30-55 mg) were stored frozen at ? 80° C. until assaying. Before assays, tissue samples were thawed on ice and homogenized with Dounce-type 2 ml homogenizer (glass vessel/glass pestle). […]\nThe protein lysates containing equal amounts of protein were separated by SDS-PAGE, electroblotted onto a nitrocellulose membrane (BioRad, Hercules, Calif., USA), and immunoreacted with an appropriate primary antibody (see below) followed by HRP-conjugated secondary antibody (Kierkegaard Perry Labs Inc., Gaithersburg, Md., USA). […] Quantitative analysis was performed using NIH “ImageJ” software. […]"}, "[3]": {"details": "used in man for more than 25 years; cited from earlier work"}}}
{"compound": "CN(CC(=O)O)C(=N)N", "note": "[creatine]", "values": [{"measurement": "increase in survival", "setting": "N171-82Q mice", "value": 19, "unit": "%"}]}
{"compound": "CC(C)(Oc1ccc(CCNC(=O)c2ccc(Cl)cc2)cc1)C(=O)O", "note": "[bezafibrate]", "values": [{"measurement": "increase in grip strength compared to untreated R6/2 mice", "setting": "R6/2 mice [1]", "value": "up to 2 fold"}, {"measurement": "increase in survival vs R6/2 mice on standard diet", "setting": "R6/2 mice [2]", "value": 20, "unit": "%"}, {"measurement": "mean survival", "setting": "R6/2 mice [2]; standard diet mean=84+1.2 days", "value": "102+3.2 days"}, {"measurement": "mitochondrial enzymes and PGC1α in brain", "setting": "P301S mice", "value": "no effect"}, {"measurement": "tolerability in man", "setting": "[3]", "value": "well-tolerated with few side effects"}]}
